Test results as given in PMC10053003, “Study on Pharmacokinetics and Metabolic Profiles of Novel Potential PLK-1 Inhibitors by UHPLC-MS/MS Combined with UHPLC-Q-Orbitrap/HRMS” (Molecules, 2023).
Read-outs that look alike come from different tables or passages of the source.

Tests used:
[1] = target: T1, PLK1 kinase (Homo sapiens, UniProt P53350); experiment: PLK1 kinase inhibition activity; assay type: biochemical
T1 construct: purchased CarnaBio 05–157
Method: The compounds were diluted at a 1:3 ratio on a 384-well plate with the highest concentration of 1 μM, and a total of 10 concentration points were tested. The mixture of PLK1 kinase and peptide substrate (5 μL) was added to each well. […] The results were tested by EnVision and analyzed using XLFIT5 software.

[2] = system: HCT-116 cells; experiment: Cell proliferation inhibition, HCT-116 (ATPlite); assay type: cell-based; settings: Homo sapiens, 72 h incubation, read-out: HCT-116 IC50 (cell viability)
Method: (§1) HCT-116 or NCI-H2030 cells were seeded in 96-well plates at a density of 720/well and cultured overnight in a 5% CO2 incubator at 37 ± 1 °C. The compounds were diluted and added at a ratio of 1:3. After incubation for 72 h, ATPlite 1step Luminescence was added and incubated in the dark for 3 min, then was vortexed at 500 rpm for 2 min, and the luminous intensity was detected by the microplate reader and the cell inhibition was calculated as follows:Inhibition (%) = 100 − (Lum compound − Lum medium)/(Lum control − Lum medium) × 100%

[3] = system: NCI-H2030 cells; experiment: Cell proliferation inhibition, NCI-H2030 (ATPlite); assay type: cell-based; settings: Homo sapiens, 72 h incubation, read-out: NCI-H2030 IC50 (cell viability)
Method: as §1

[4] = Pharmacokinetics in rats after intravenous administration; assay type: in vivo; settings: Sprague-Dawley, rat, plasma, i.v. 1 mg/kg
Method: The pharmacokinetic characteristics of 7a were then evaluated successfully with the validated UHPLC-MS/MS method. […] The AUC0–24h was about 517 and 3192 h × nmol/L at the doses of 5 and 30 mg/kg, respectively. The tmax was approximately 2 h, and t1/2 was 5 h. In the dose range of 5–30 mg/kg, the pharmacokinetics of 7a were almost linear. The mean plasma concentration-time curve of 7a after a single intravenous administration (1 mg/kg) and the major pharmacokinetic parameters can be found in Figure S14 and Table S1.
(§2) The main pharmacokinetic parameters were calculated using Phoenix WinNonlin 7.0 via a non-compartmental model (Pharsight, Mountain View, CA). […] Data were presented as mean ± SD.
Figure S12. 19F NMR (400 MHz, DMSO) of compound 7a: δ -56.89 ppm.
Figure S13. Mass spectrum of compound 7a (m/z 500.2).
Figure S14. Mean concentration-time curves of compound 7a after intravenous administration in rats (1 mg/kg).
Data were presented as mean ± SD, n=3.
Table S1. Main pharmacokinetics parameters of compound 7a after intravenous administration (mean ± SD, n=3).
T (h) C0 AUC0-t V (L/kg) Cl(L/h/kg) […]

[5] = assay type: in vitro ADME, human; settings: for HLM (%) relative abundance (area ratio): incubation of 7a in human liver microsomes with NADPH
[6] = assay type: in vitro ADME; settings: incubation of 7a in rat liver microsomes with NADPH
Method: Liver microsomes were used to investigate the metabolism clearance of 7a. In addition, 5 µL of rat liver microsome (20 mg/mL), 2 µL of 7a or onvansertib (100 µM), and 173 µL of PBS buffer (0.1 M, pH 7.4) were added to 1.5 mL Eppendorf tubes. After pre-incubation for 10 min at 37 °C, the reaction was initiated by adding an NADPH-generating system (20 µL) into the microsomal suspension. A system without NADPH was set as a negative control. After incubations for 10 min, 30 min, or 60 min, 400 µL of ice acetonitrile was added to quench the reaction. The supernatants were injected into Q Exactive ™ combined quadrupole Orbitrap mass spectrometer (Thermo Scientific, Waltham, MA, USA) for metabolite profiling and identification. The concentration of the compound to be measured at 0 min was defined as 100%, and the concentration at other times was converted into a residual percentage.

[7] = Pharmacokinetic study in rats after oral administration; assay type: in vivo, Sprague-Dawley rats; settings: for Cmax / Tmax / half-life / bioavailability / AUC(0-t): Sprague-Dawley, rat, plasma; for AUC(0-t): read-out: AUC0–24h
Method: Sprague-Dawley rats (8 weeks old, 180–220 g) were provided by Pengyue Laboratory Animal Technology Co., Ltd (Jinan, Shandong, China). All rats were fed adaptively for 1 week (20 °C–24 °C, 50%–70% relative humidity, 12/12 h light/dark cycle). A standard diet and boiled water were provided. The rats fasted for over 12h with free access to water before the study. Furthermore, 7a was dissolved DMSO (5%) and then diluted with saline. The rats were given 7a by gavage at 5 mg/kg and 30 mg/kg. In addition, 200 μL of blood was collected into a 1.5 mL tube added with heparin at 5 min, 15 min, 30 min, 1 h, 2 h, 4 h, 6 h, 8 h, 10 h, and 24 h after administration. Plasma was acquired by centrifugation (8000 rpm, 5 min) and all samples were immediately stored at −20 °C immediately. The guidelines of the Animal Ethics Committee of Luye Pharma Group Ltd. were strictly enforced during the animal experiments to ensure animal welfare.
as §2

[8] = Stability of 7a in rat plasma (QC samples, UHPLC-MS/MS); assay type: in vitro ADME
Method: QC samples were stored under different conditions, such as room temperature for 4 h, frozen-thawed for 3 cycles, frozen at −20 °C for 7 days, or stored in an auto-sampler for 24 h. The sample concentrations were calculated by the following calibration curve. The RE (%) and RSD (%) should be less than ±15%.

[9] = both sexes, oral 5 mg/kg, mean of male and female rats
[10] = both sexes, oral 30 mg/kg, mean of male and female rats
[11] = both sexes, oral, rats, doses 5–30 mg/kg, overall statement
[12] = autosampler 4 °C for 24 h, nominal 3 nM
[13] = autosampler 4 °C for 24 h, nominal 300 nM
[14] = autosampler 4 °C for 24 h, nominal 750 nM
[15] = rat plasma, freeze −20 °C for 7 days, nominal 3 nM
[16] = rat plasma, freeze −20 °C for 7 days, nominal 300 nM
[17] = rat plasma, freeze −20 °C for 7 days, nominal 750 nM
[18] = rat plasma, freeze-thaw for 3 cycles, nominal 3 nM
[19] = rat plasma, freeze-thaw for 3 cycles, nominal 300 nM
[20] = rat plasma, freeze-thaw for 3 cycles, nominal 750 nM
[21] = rat plasma, room temperature for 4 h, nominal 3 nM
[22] = rat plasma, room temperature for 4 h, nominal 300 nM
[23] = rat plasma, room temperature for 4 h, nominal 750 nM

T1 sequence (P53350 whole entry): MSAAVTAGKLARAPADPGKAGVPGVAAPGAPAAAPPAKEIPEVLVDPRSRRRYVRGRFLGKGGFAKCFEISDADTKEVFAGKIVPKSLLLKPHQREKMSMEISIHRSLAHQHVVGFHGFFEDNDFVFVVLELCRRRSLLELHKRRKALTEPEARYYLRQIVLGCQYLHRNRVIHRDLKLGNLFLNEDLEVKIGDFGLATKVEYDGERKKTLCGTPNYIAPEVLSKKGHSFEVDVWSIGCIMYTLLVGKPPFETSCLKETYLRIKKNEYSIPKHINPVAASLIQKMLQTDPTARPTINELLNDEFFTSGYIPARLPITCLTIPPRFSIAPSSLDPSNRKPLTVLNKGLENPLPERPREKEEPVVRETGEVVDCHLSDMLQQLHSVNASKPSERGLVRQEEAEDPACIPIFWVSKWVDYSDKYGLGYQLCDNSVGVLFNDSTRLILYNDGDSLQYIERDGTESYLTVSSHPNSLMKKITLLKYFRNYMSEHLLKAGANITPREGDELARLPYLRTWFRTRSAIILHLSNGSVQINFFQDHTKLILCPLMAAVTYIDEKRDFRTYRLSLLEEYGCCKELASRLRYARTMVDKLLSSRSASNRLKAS

With CN1CCN(c2ccc(OC(F)(F)F)c(Nc3nccc(-c4cc5c(n4C)CCNC5=O)n3)c2)CC1 [compound 25, reference compound] the IC50 ([1]; read-out: PLK1 inhibition IC50) was 4.07 nM, the IC50 [2] was 62.8 nM and the IC50 [3] was 74.7 nM.
With CN1CCN(c2ccc(OC(F)(F)F)c(Nc3nccc(-c4cc5c(=O)[nH]ccc5n4C)n3)c2)CC1 [compound 7a, 1-methyl-2-(2-((5-(4-methylpiperazin-1-yl)-2-(trifluoromethoxy)phenyl)amino)pyrimidin-4-yl)-1,5-dihydro-4H-pyrrolo[3,2-c] pyridin-4-one] the IC50 [1] was 0.89 nM, the “PLK-1 activity and cytotoxicity, times higher than compound 25” value ([1]; relative to compound 25) was “more than 4 times” and the AUC(0-t) [4] was 0.472 ± 0.032 µM·h. The C0 [4] was 481 ± 42 nM, the clearance [4] was 70 mL/min/kg and the half-life [4] was 2.4 ± 0.6 h. For the same molecule, the Vd ([4]; read-out: Vss) was 8.5 ± 1.3 L/kg, the “stability of the parent in HLM” value ([5]; human liver microsomes) was “stable” and the “HLM (%) relative abundance (area ratio)” value [5] was 43.73%. The IC50 [2] was 30.6 nM, the “RLM (%) relative abundance (area ratio)” value [6] was 5.34% and the IC50 [3] was 38.5 nM. It also gave a Cmax ([7]; oral 5 mg/kg, female rats) of 102 ± 25 nM, a Tmax ([7]; oral 5 mg/kg, female rats) of 0.8 ± 1 h and a half-life ([7]; oral 5 mg/kg, female rats) of 4.6 ± 1.4 h. For the same molecule, the bioavailability ([7]; oral 5 mg/kg, female rats, read-out: F) was 19.9%, the Cmax ([7]; oral 5 mg/kg, male rats) was 87 ± 45 nM and the Tmax ([7]; oral 5 mg/kg, male rats) was 3 ± 2.6 h. It also gave a half-life ([7]; oral 5 mg/kg, male rats) of 4.4 ± 0.9 h, a bioavailability ([7]; oral 5 mg/kg, male rats, read-out: F) of 23.9% and a Cmax ([7]; oral 30 mg/kg, female rats) of 428 ± 90 nM. For the same molecule, the Tmax ([7]; oral 30 mg/kg, female rats) was 2.3 ± 1.5 h, the half-life ([7]; oral 30 mg/kg, female rats) was 6.1 ± 0.9 h and the bioavailability ([7]; oral 30 mg/kg, female rats, read-out: F) was 22.3%. It also gave a Cmax ([7]; oral 30 mg/kg, male rats) of 435 ± 81 nM, a Tmax ([7]; oral 30 mg/kg, male rats) of 2 ± 1.9 h and a half-life ([7]; oral 30 mg/kg, male rats) of 3.7 ± 1.3 h. It also gave a bioavailability ([7]; oral 30 mg/kg, male rats, read-out: F) of 22.7%, an AUC(0-t) ([7]; both sexes, po, 5 mg/kg, oral 5 mg/kg, mean of male and female rats) of roughly 0.517 µM·h and an AUC(0-t) ([7]; both sexes, po, 30 mg/kg, oral 30 mg/kg, mean of male and female rats) of roughly 3.19 µM·h. The bioavailability ([7]; both sexes, po, rats, overall statement, read-out: oral bioavailability (F)) was roughly 22%, the Cmax [7, 9] was 95 ± 33 nM and the Tmax [7, 9] was 1.9 ± 2.1 h. The half-life [7, 9] was 4.5 ± 1.1 h, the bioavailability ([7]; both sexes, oral 5 mg/kg, mean of male and female rats, read-out: F) was 21.9% and the Cmax [7, 10] was 432 ± 77 nM. It also gave a Tmax [7, 10] of 2.2 ± 1.6 h, a half-life [7, 10] of 5.1 ± 1.6 h and a bioavailability ([7]; both sexes, oral 30 mg/kg, mean of male and female rats, read-out: F) of 22.5%. It also gave a Tmax [7, 11] of roughly 2 h, a half-life [7, 11] of 5 h and an AUC(0-t) ([7]; female, po, 5 mg/kg, oral 5 mg/kg, female rats) of 0.469 ± 0.064 µM·h. The AUC(0-t) ([7]; female, po, 30 mg/kg, oral 30 mg/kg, female rats) was 3.16 ± 1.02 µM·h, the AUC(0-t) ([7]; male, po, 5 mg/kg, oral 5 mg/kg, male rats) was 0.565 ± 0.132 µM·h and the AUC(0-t) ([7]; male, po, 30 mg/kg, oral 30 mg/kg, male rats) was 3.22 ± 1.04 µM·h. For the same molecule, the “AUC0–24h” value ([7]; oral 30 mg/kg, mean of male and female rats, 30 mg/kg) was 3.192 ± 0.922 µM·h, the “Measured Concentrations” value [8, 12] was 3.05 ± 0.10 nM and the “RE (stability)” value [8, 12] was 1.78%. The “Measured Concentrations” value [8, 13] was 280 ± 11.9 nM, the “RE (stability)” value [8, 13] was −6.67% and the “Measured Concentrations” value [8, 14] was 701 ± 46.5 nM. The “RE (stability)” value [8, 14] was −6.58%, the “Measured Concentrations” value [8, 15] was 2.55 ± 0.13 nM and the “RE (stability)” value [8, 15] was −14.9%. For the same molecule, the “Measured Concentrations” value [8, 16] was 272 ± 9.67 nM, the “RE (stability)” value [8, 16] was −9.33% and the “Measured Concentrations” value [8, 17] was 685 ± 34.7 nM. The “RE (stability)” value [8, 17] was −8.71%, the “Measured Concentrations” value [8, 18] was 2.73 ± 0.21 nM and the “RE (stability)” value [8, 18] was −9.17%. For the same molecule, the “Measured Concentrations” value [8, 19] was 260 ± 10.8 nM, the “RE (stability)” value [8, 19] was −13.4% and the “Measured Concentrations” value [8, 20] was 649 ± 24.2 nM. The “RE (stability)” value [8, 20] was −13.5%, the “Measured Concentrations” value [8, 21] was 2.59 ± 0.17 nM and the “RE (stability)” value [8, 21] was −13.7%. The “Measured Concentrations” value [8, 22] was 261 ± 4.94 nM, the “RE (stability)” value [8, 22] was −13% and the “Measured Concentrations” value [8, 23] was 649 ± 17.9 nM. For the same molecule, the “RE (stability)” value [8, 23] was −13.4%.
For Cn1c(-c2ccnc(Nc3cc(N4CCNCC4)ccc3OC(F)(F)F)n2)cc2c(=O)[nH]ccc21 [M2], the “HLM (%) relative abundance (area ratio)” value [5] was 34.76% and the “RLM (%) relative abundance (area ratio)” value [6] was 6.53%.
